# A melting point compilation (Tetko et al.; mined from patent text by program, amines drawn as free bases though some values may be those of a salt)
row,melting point,Compound
1,260 to 261 °C,O=C(c1ccccc1)c1ccc2c(c1)C1(c3ccccc3-2)c2ccccc2-c2ccc(C(=O)c3ccccc3)cc21
2,86 to 88 °C,COC(=O)c1ccc([N+](=O)[O-])cc1S(=O)(=O)Cl
3,103 to 104 °C,CC1(C)NC(SCc2ccccc2N)=NC1=S
4,106 to 108 °C,Cc1ccc(S(=O)(=O)NC(=O)C2C(=O)CC(C(C)C)CC2=O)cc1 (configuration not stated)
5,75 to 77 °C,CC(C)Nc1nccc(C(=O)C(=O)c2ccc(F)cc2)n1
6,148 to 151 °C,CCCCCN(CCCCC)CCCOC(=O)c1ccc2c(c1)-c1ccc(C(=O)OCCCN(CCCCC)CCCCC)c3cccc-2c13
7,88 to 90 °C,COC(=O)c1ccc(OCCNC(=O)OCc2ccccc2)cc1Cl
8,151 to 153 °C,Nc1ccc(Oc2ccc(C(=O)c3ccc(C#Cc4ccccc4)cc3)cc2)cc1
9,136 to 137 °C,CCCc1c(OCCCOc2ccc(Cl)c(Cl)c2)ccc2c1OC(CCC(=O)O)(CCC(=O)O)CC2=O
10,208 to 214 °C,Cc1ccc(-n2c3ccc(C)cc3c3cc(-n4ccnc4-c4nccn4-c4ccc5c(c4)c4cc(C)ccc4n5-c4ccc(C)cc4)ccc32)cc1
11,248 to 250 °C,O=C(O)c1cccc(-c2nc3cc(N4CCCC4)ccc3o2)c1
12,267 to 270 °C,Oc1ccc(-c2noc3c(Br)cc(O)cc23)cc1
13,184 to 186 °C,CC[C@H](C)COc1ccc(-n2cc(C(=O)O)cn2)cc1C#N
14,75 to 78 °C,COC(=O)Oc1ccc(F)cc1Br
15,177 to 178 °C,CSC1C(=O)Nc2cc(-c3ccccc3)ccc21 (configuration not stated)
16,126 °C,COc1cc2c(cc1OC)CN(CN1CCc3cc(OC)c(OC)cc3C1)CC2
17,189 to 192 °C,CCC(C)(C)NC(Nc1cc(Cl)cc(Cl)c1)=C(C#N)S(=O)(=O)c1ccc(Cl)cc1
18,78.1 to 79.5 °C,COc1ccc(Cc2nc3c(N)nc4ccccc4c3n2CCCCNS(C)(=O)=O)cc1
19,130 to 131 °C,COC(=O)[C@@H](Cc1ccccc1)NC(=O)[C@@H](Cc1c[nH]c2ccccc12)NC(=O)OCc1ccccc1
20,177 to 178 °C,C=CCc1ccc2c(c1O)CCC(=O)N2c1ccccc1
21,83 to 85 °C,Cc1cnc(I)c(OCc2ccccc2)c1
22,238 to 240 °C,Cc1cc(O)nc(SCC(N)=O)n1
23,121 to 122 °C,CC(=O)CC1(C(=O)c2ccc([N+](=O)[O-])cc2)C=CC(Cl)=C(Cl)C1 (configuration not stated)
24,93 to 94 °C,CC(C)N1CC2CC(CN(C(=O)Cc3ccc([N+](=O)[O-])cc3)C2)C1

row,melting point,Compound
1,73 to 75 °C,CCOC(=O)C1CCc2cc(O)c(C(C)=O)cc2C1 (configuration not stated)
2,102 to 106 °C,CCCC[C@H](NC(=O)[C@H](CC(C)C)NC(=O)c1ccc(C(F)(F)F)cc1F)C(=O)CSCc1ccco1
3,106 to 108 °C,CCOc1nc(OCC)nc(N2CCN(C=O)CC2)n1
4,188 to 191 °C,COC(=O)N(C)CCc1ccc2[nH]c(C)c(S(=O)(=O)c3ccccc3)c2c1
5,162 to 163 °C,NC(=O)/C=C1/c2cc(F)ccc2CC1Br (configuration not stated)
6,244 to 245 °C,CC1(C)Oc2cc([N+](=O)[O-])c(N)cc2[C@@H](N2CCCC2=O)[C@@H]1O (relative stereo)
7,188 °C,O=C(O)c1cn(C2CC2)c2c(F)c(F)c(F)c(NC(=O)C(F)(F)F)c2c1=O
8,248 °C,CC(C)C(=O)Nc1ccc(C(=O)Nc2ccccc2N)cc1
9,202 to 204 °C,CN1CCOc2c(C(=O)O)cc(Cl)cc21
10,158 to 161 °C,CC=Nc1cc(CO)cc(Nc2c3ccccc3nc3ccccc23)c1
11,233 to 234 °C,CCOCc1nc2c(N)nc3cc(Br)ccc3c2n1CC1CCN(S(C)(=O)=O)CC1
12,202 to 203 °C,Cc1nnc(-c2ccnc(Nc3cc(F)ccc3F)c2)o1
13,110 to 130 °C,CCC(=O)OC1(C(=O)C(O)OC(=O)C(NC(=O)OC(C)(C)C)C(C)C)CCC2C3CC(C)C4=CC(=O)C=CC4(C)C3C(O)CC21C (configuration not stated)
14,72 to 75 °C,CCCCc1nn(C(CC)c2ccccc2)c(=O)n1Cc1ccc(-c2ccccc2-c2nnn[nH]2)cc1 (configuration not stated)
15,210 °C,Cc1cn(C)c2ccc(NC(=O)Nc3cccnc3)cc12
16,209 to 210 °C,Cc1oc(-c2ccccc2)nc1COc1ccc(OCc2oc(-c3ccccc3)nc2/C=C/C(=O)O)cc1
17,32 °C,CCCC[C@H]1CC[C@H](c2ccc(CCc3ccc(OC(F)F)cc3)cc2)CC1
18,219 to 220 °C,O=c1[nH]c(=O)n([C@@H]2CO[C@H](CO)[C@@H](O)C2)cc1I
19,113 to 135 °C,C=CS(=O)CCNC(=O)NC(=O)CCCl (configuration not stated)
20,129 to 130 °C,CCOC(=O)Cc1c(CC)nn(-c2ccccc2)c1CC
21,114 °C,Cc1ccc(S(=O)(=O)N2CCCC2c2ccsc2)cc1 (racemic)
22,158 to 160 °C,CC1=C(C2C=CN(C(=O)OCC(Cl)(Cl)Cl)C=C2)SCC(=O)N1
23,250 °C,CCOc1ccc(-c2cc(C(F)(F)F)n3ncc(-c4ccnc(C)c4)c3n2)cc1C(F)(F)F
24,148 °C,CC(=O)Nc1cc(C)c(N)c(C)c1

row,melting point,Compound
1,189 to 191 °C,COc1ccc(N2CCN(c3c(C)c(C)c4c(c3C)C(c3ccc(C)cc3)C(C)(C)O4)CC2)cc1 (configuration not stated)
2,266 to 271 °C,Oc1cc2c3cc(O)c(O)cc3n(Cc3ccccc3)c2cc1O
3,121 to 123 °C,NS(=O)(=O)Oc1ccc(Cl)c(Cl)c1
4,117 to 119 °C,COc1ccc(N(C)CCN(C)CCCN2CCc3cc(OC)c(OC)cc3NC2=O)cc1OC
5,128 to 130 °C,COC(=O)c1sc2ccc(N)cc2c1N
6,170 to 171 °C,Cc1cccn2c(=O)c(C(=O)NC3CCCC3)cnc12
7,236 to 239 °C,COCOCc1ccc(C2Cn3cc(C(=O)NCc4ccc(Cl)cc4)c(=O)c4cc(CN5CCOCC5)cc(c43)O2)cc1 (configuration not stated)
8,186 °C,CC[C@@H]1O[C@](C#CC2CC2)(C(F)(F)F)c2cc(F)ccc2NC1=O (relative stereo)
9,> 114 °C,Cc1nc(C)c(Cl)c(NCc2ccc(Oc3ccc4ncc([N+](=O)[O-])n4n3)c(O)c2)n1
10,79 to 81 °C,c1cc(OC[C@H]2CO2)c2cccnc2c1
11,159 °C,Oc1ccc2c(c1)CCCC(c1ccccc1)=C2c1ccc(OCCCCCSCc2ccccn2)cc1
12,163 °C,COC(=O)c1ccc(C(C)(O)c2cc3cc(Cl)ccc3n2S(=O)(=O)c2ccc(C(C)C)cc2)cc1 (configuration not stated)
13,148 to 150 °C,CC(C)CC(CP(=O)(O)CNC(=O)c1ccccc1)C(=O)N(c1ccc(-c2ccccc2)cc1)[C@@H](C)C(=O)O (some centres not stated)
14,77.7 °C,CC(C)(C)OC(=O)N1CCC(NCc2cccc(NC(=O)c3ccc(F)cc3)n2)CC1
15,158 to 159 °C,Cc1nc(-n2ccn(Cc3ccc(F)cc3)c2=O)sc1C(=O)NCc1cccnc1
16,62 to 63.5 °C,CC(=O)C(C#N)C(=O)C1CC1 (configuration not stated)
17,169 to 170 °C,CCN(CC)CC1CCCCN1CCNC(=O)N1c2cc(Cl)ccc2C(=O)Nc2cccnc21 (configuration not stated)
18,241 to 243 °C,N#CC1=C2C(=NC1=O)c1c(OCc3cccs3)ccc3cccc2c13
19,228 to 232 °C,CC(C)Cn1cnc2c(N)nc3ccc(-n4cccc4)cc3c21
20,164 to 166 °C,O=C(O)C(=O)CC(=O)c1cccn1Cc1cccc(Br)c1
21,195 to 200 °C,O=c1[nH]c2cc(Cl)c(-n3cccc3)cc2cc1P(=O)(O)O
22,245 to 247 °C,O=[N+]([O-])c1oc2ccc(Cc3nnn[nH]3)cc2c1-c1ccccc1
23,170 to 174 °C,COC(=O)c1cc(O)n2nc(C)nc2n1
24,280 to 290 °C,Nc1cc(-c2cccnc2)c[nH]c1=O

row,melting point,Compound
1,91 to 93 °C,Cc1c(C)c2c(c(C)c1O)C(c1ccc(N3CCOCC3)cc1)C(C)(C)O2 (configuration not stated)
2,137 °C,O=C(NC1CCCC1)n1cc(F)c(=O)[nH]c1=O
3,93 to 102 °C,O=C1CCSc2c1ccc(Cl)c2Cl
4,169 to 171 °C,COc1cc(OC)nc(NC(=O)NS(=O)(=O)c2ccccc2CCCl)n1
5,125 to 126 °C,COC(=O)[C@H](CC(C)C)NC(=O)[C@@H]1CSC(=O)N1
6,175 to 176 °C,O=c1ccn(-c2ccc(OC(F)F)cc2)nc1-c1ccnn1-c1ccccc1
7,237 to 239 °C,Cc1cc(CNc2cccc3c2CN(C2CCC(=O)NC2=O)C3=O)oc1C (configuration not stated)
8,130 to 140 °C,C[C@H](NC(=O)Cc1ccc(F)cc1)C(=O)N[C@@H]1C(=O)Nc2ccccc2O[C@@H]1c1ccccc1
9,91 to 93 °C,COc1ccnc(C(=O)Nc2ccc(Oc3ccc(C(F)(F)F)cc3)cc2)c1O
10,116 to 118 °C,NC(=O)CCCC1Cc2ccccc2C1
11,89 to 91 °C,CCCCCCCCCCNC(=O)c1ccc([N+](=O)[O-])cc1
12,198 to 199 °C,Cc1nnc(-c2ccc3occ(-c4ccc(OCS(C)(=O)=O)cc4)c3c2)o1
13,155 to 160 °C,CC1=NC2CN=C(c3ccccc3)c3cc(Cl)ccc3C2C(=O)N1 (configuration not stated)
14,200 °C,CCCC(=O)Nc1n[nH]c2cc(C(F)(F)F)ccc12
15,232 to 234 °C,CC(C)Oc1ccc2ncn(/C=C/C(=O)O)c(=O)c2c1
16,159 to 161 °C,CCN1C(=O)C(C)(C)C(=O)N(C)c2cc(CN(CCn3ccc4oc(C)cc4c3=O)Cc3ccccc3CO)ccc21
17,148 to 149 °C,Cc1oc(-c2ccccc2)nc1CCOc1ccc(Cn2cc(CC(=O)O)c(-c3ccccc3)n2)cn1
18,219 to 221 °C,CCc1cccc(C)c1C(=O)N[C@@H](Cc1ccc(-c2c(C(F)(F)F)cc(C)n(C)c2=O)cc1)C(=O)O
19,159 to 161 °C,O=C(O)C(=O)CC(=O)c1cccn1Cc1cccc(Cl)c1
20,73 to 75 °C,CCC(OC(C)=O)C(C)[N+](=O)[O-] (configuration not stated)
21,294 to 295 °C,O=C(O)c1ccc(-c2cnc(-c3ccc(C(F)(F)F)cc3)s2)cc1
22,128 °C,Cn1ncnc1COc1nn2c(-c3ccccc3F)nncc2c1C(C)(C)C

row,Compound,melting point
1,COCn1ncc2cc(Cl)c(NC(=O)c3cc(C(F)(F)F)nn3-c3ncccc3Cl)c(C(=O)NC(C)C)c21,180 to 182 °C
2,CCCCN(CCCC)Cc1nc(-c2ncn3c2CN(C)C(=O)c2ccccc2-3)no1,105 to 110 °C
3,CC(=O)OC1CCC2CCC3C(CCC4(C)C(O)C(N5CCCCC5)CC34)C2(C)C1 (configuration not stated),162 to 166 °C
